Experimental data from PMC11004067, “Identification and characterization of a calcium-binding peptide from salmon bone for the targeted inhibition of α-amylase in digestion” (Food Chemistry: X, 2024).

Tests used:
[1] = Ca-binding capacity (colorimetric Ca kit); settings: 5 mg sample, 1 mL 5 mM CaCl2, 2 mL PBS 20 mM pH 7, 37 °C 1 h; ranking in words, Fig. 1C
Description: The Ca-binding capacities of SBPH, SBTH, and SBNPH were determined according to the previous study ([Choi, Jung, Choi, Kim, & Ha, 2005]). 5 mg lyophilized powder of SBPH, SBTH, and SBNPH, was mixed with 1 mL of 5 mM CaCl2 and 2 mL of phosphate-buffered saline (PBS, 20 mM, pH = 7). The mixture was stirred at 37 °C pH = 7 for 1 h, followed by centrifugation at 5000 rpm for 10 min. The calcium content in the supernatant was determined using colorimetry with Ca assay kits (JianCheng, Nanjing, China).

[2] = ref Xu et al., 2020, 2019, 2022; cited from earlier work
From the text: Peptidomics facilitates the comprehensive characterization of peptides on a large scale. This analytical approach offers a time-efficient means of generating an extensive array of peptide fragments ([Martini, Solieri, & Tagliazucchi, 2021]). Herein, the peptide sequences were retrieved from an established database using MASCOT, and active peptide sequences with Ca-binding capacities were identified. The peptide sequences from SBTH were identified in Table S1 (Supplementary materials), along with information on their amino acid sequences, lengths, and molecular weights. A total of 6505 peptide ...

[3] = Effect of PIE on body weight in mice; format: in vivo; settings: 30 mg/kg by gavage, 12 weeks, female BALB/c mice
Description: The animal study was approved by the Animal Ethics Committee of Dalian Polytechnic University (protocol ID SYXK2017–0005) per the guidelines of the National Institutes of Health Laboratory Animals for Animal Care. 10-week-old female BALB/c mice (L20160258, Dalian Medical University, Liaoning, China) were acclimatized with normal chow for 2 d, and were randomly separated 2 groups (n = 8): the control group (saline) and the PIE group (at a dose of 30 mg PIE/kg body weight). Both groups were maintained on a basal diet throughout the study. Given that mice are nocturnal feeders, gavage was performed between 5:00–6:00 PM. Body weights were measured and recorded at 7-day intervals. The feed and water were provided ad libitum to mice. Changes in body weight were analyzed after 12 weeks of continuous gavage ([Pinzón-García et al., 2018]).

[4] = test system: 3 T3-L1 preadipocytes; test: Total cellular cholesterol content; format: cell-based; settings: 1000 μg/mL
Description: (§1) With minor modifications based on the method ([Lee et al., 2023]). 3 T3-L1 Preadipocytes were cultured at 37 °C and 5% CO2 until 80% fusion, passaged and differentiated. After induction with inducers for 8d, the cells were then cultured with DMEM containing 1% PS and 10% FBS for 4d.
Total cellular cholesterol content was measured using a kit (JianCheng, Nanjing, China). The […] enzymatic method was used according to the manufacturer's instructions. Protein concentration was measured using the BCA protein assay kit (Solarbio, Beijing, China).

[5] = test system: α-amylase; test: α-amylase inhibition during in vitro simulated gastrointestinal digestion; format: biochemical; settings: 0-240 min, DNS method
Description: The activity of α-amylase was determined spectrophotometrically using soluble starch as the substrate and 3,5-dinitrosalicylic acid (DNS) as the chromogenic agent. α-amylase solution (4 units/mL, 0.25 mL) and 0.25 mL each of SBPH, SBTH, and SBNPH (each at 1 μg/mL, 10 μg/mL, 100 μg/mL, and 1000 μg/mL concentrations) were added to 0.5 mL of PBS (pH 6.9, 0.2 mol/L) to make test solutions. These solutions were then incubated at 37 °C for 10 min. Then, 0.5 mL of 1% soluble starch solution was added to each test solution to continue the reaction for 5 min. Thereafter, l mL of DNS reagent was added to each solution, and the mixtures were boiled for 10 min. After the dilution of five times, the absorbance value was measured at 540 nm ([Wu et al., 2019]). […] A represents the absorbance value of the blank tube, a represents the absorbance value of the blank control tube, B represents the absorbance value of the inhibition tube, and b represents the absorbance value of the background control tube.
A gastrointestinal digestion simulation test was performed according to a previously reported method ([Brodkorb et al., 2019]). Samples were assessed at 0, 10, 30, 60, 90, 120, 130, 150, 180, 210, and 240 min. The inhibition rates of SBPH, SBTH, and SBNPH for α-amylase were determined by the DNS method.

[6] = test system: α-amylase; test: α-amylase conformation: secondary structure content by circular dichroism; format: biochemical; settings: 1-1000 μg/mL
Description: The effect of peptides on the secondary structure of α-amylase was analyzed by circular dichroism. α-Amylase was reacted with the following different concentrations of SBPH, SBTH, and SBNPH: 1, 10, 100, and 1000 μg/mL. The test parameters were as follows: 1 mm quartz cuvette; scanning wavelength range = 190– 250 nm; bandwidth = 2 nm; scanning speed = 100 nm/min; and response time = 1 s. α-Amylase without SBPH, SBTH, and SBNPH treatment was used as the blank control, and it was analyzed under the same conditions. The experimental results were obtained by subtracting the buffer background from the scanned data ([Zhang & Ma, 2013]).

[7] = ref Xu et al., 2020, 2019, 2022; cited from earlier work; remark: listed apart in the source
[8] = test system: α-amylase; test: α-amylase inhibition rate (DNS method, soluble starch); format: biochemical; settings: 100 μg/mL; α-amylase 4 units/mL, PBS pH 6.9, 37 °C 10 min, 1% soluble starch 5 min, DNS 540 nm; mean, n = 3
Description: The activity of α-amylase was determined spectrophotometrically using soluble starch as the substrate and 3,5-dinitrosalicylic acid (DNS) as the chromogenic agent. α-amylase solution (4 units/mL, 0.25 mL) and 0.25 mL each of SBPH, SBTH, and SBNPH (each at 1 μg/mL, 10 μg/mL, 100 μg/mL, and 1000 μg/mL concentrations) were added to 0.5 mL of PBS (pH 6.9, 0.2 mol/L) to make test solutions. These solutions were then incubated at 37 °C for 10 min. Then, 0.5 mL of 1% soluble starch solution was added to each test solution to continue the reaction for 5 min. Thereafter, l mL of DNS reagent was added to each solution, and the mixtures were boiled for 10 min. After the dilution of five times, the absorbance value was measured at 540 nm ([Wu et al., 2019]). The inhibition of the activity of α-amylase by salmon bone hydrolysate was calculated as using the formula (1):(1) I%=[1−B−b/A−a×100% where I represents the inhibition rate of α-amylase by salmon bone hydrolysates. A represents the absorbance value of the blank tube, a represents the absorbance value of the blank control tube, B represents the absorbance value of the inhibition tube, and b represents the absorbance value of the background control tube.

[9] = test system: α-amylase; test: DLS analysis of α-amylase particle size / hydrodynamic radius; format: biochemical; settings: α-amylase 4 units/mL, substance 1-1000 μg/mL, 24 h incubation
Description: The α-amylase solution (4 units/mL) and SBPH, SBTH, and SBNPH solutions (each at 1, 10, 100, and 1000 μg/mL concentrations) were prepared. Filtration was performed using a 0.45-μm filter. The α-amylase solution was incubated with different concentrations of SBPH, SBTH, and SBNPH solutions for 24 h. Each sample (1 mL) was analyzed using the DLS apparatus. The particle size variation of α-amylase in each solution was analyzed. The α-amylase alone solution was used as a positive control under the same conditions ([Xiong et al., 2016]).

[10] = test system: 3 T3-L1 preadipocytes; test: Cellular triglyceride content; format: cell-based; settings: 1000 μg/mL, with Inducers I and II
Description: as §1
Cellular triglyceride content (TG) was measured using a kit (JianCheng, Nanjing, China). Differentiated adipocytes were treated with different samples in 6-well plates according to the manufacturer's instructions. Cells were first washed with PBS, followed by the addition of ethanol. The cells were then transferred into centrifuge tubes using a cell scraper. Subsequently, the cells were broken down by ultrasound in an ice water bath. […] was measured using a specialized kit.

[11] = target: α-amylase; test: Kinetics of α-amylase inhibition (Lineweaver-Burk); format: biochemical; settings: 37 °C
Description: The kinetics of α-amylase inhibition was performed with minor modifications as previously reported ([Cardullo et al., 2020]). In the reaction system, 1 mL of soluble starch solution (10 mg/mL) and 1 mL of different concentrations of SBPH, SBTH, and SBNPH (concentrations of 1, 10, 100, and 1000 μg/mL, respectively) were added. a temperature bath was maintained at 37 °C for 30 min. Different concentrations of α-amylase solution were added. The change in absorbance value of the system was determined. Plot the rate of enzymatic reaction versus α-amylase concentration.
To the reaction system, 1 mL of soluble starch solution of different concentrations (0, 5, 10, 15, 20, 25 mg/mL) was added. The effects of different concentrations of SBPH, SBTH and SBNPH on α-amylase activity were determined at 37 °C in a water bath. Finally, the inverse of the concentration of soluble starch solution was used as the horizontal coordinate and plotted with Lineweaver-Burk plots to determine the type of inhibition of α-amylase by SBPH, SBTH and SBNP. The general equation for reversible inhibition is given below: v=vmaxS/Km1+i/Kic+1+i/Kiu 1/v=Km+s/vmaxs+iKm/Kic+s/Kiu/vmaxs 1/v=Km/vmax1+i/Kic+s/vmax1+i/Kiu where Km is the Michaelis-menten constand (mg/mL), v denotes the initial reaction rate (U, mm/min), S denotes the substrate concentration (mg/mL), i denotes the content of the inhibitor concentration (U, mg/mL), Kic denotes the inhibitory constant of the competitive inhibitor, and Kiu denotes the inhibitory constant of the non-competitive inhibitor.

[12] = test system: 3 T3-L1 preadipocytes; test: Cell viability (MTT) in 3 T3-L1 preadipocytes; format: cell-based; settings: 24 h, 1 to 100 μg/mL
Description: With slight modifications based on the method ([Cui et al., 2019]). MTT method was used to assess the proliferative effects of different concentrations of orlistat, SBTH and PIE on 3 T3-L1 preadipocytes. Cells were treated with different samples for 24 h. Finally, the absorbance at 490 nm was measured using a Microplate Reader (Synergy H1, BioTek, USA).

[13] = Lineweaver-Burk double inverse plots, soluble starch 0-25 mg/mL

| Compound | calcium-binding capacity / affinity [1] | calcium-binding capability [2] | body weight change ([3]; n = 8) | weight gain over three months ([3]; n = 8, basal diet, control group 33.65%) | TC content decreased to [4] | α-amylase inhibition rate with simulated digestion time [5] | change of α-amylase secondary structure with increasing concentration [6] | activity and stability in the gastrointestinal tract [7] | α-amylase inhibition rate [8] | hydrodynamic radius of α-amylase [9] | TG content reduced to [10] | KI [11, 13] | KIS [11, 13] | reversibility of α-amylase inhibition ([11]; enzyme reaction rate against α-amylase concentration) | cytotoxicity [12] |
| --- | --- | --- | --- | --- | --- | --- | --- | --- | --- | --- | --- | --- | --- | --- | --- |
| IEELEEELEAER [PIE, Ile-Glu-Glu-Leu-Glu-Glu-Glu-Glu-Leu-Glu-Ala-Glu-Arg, peptide … from SBTH, purity 94.74%, synthesized at ChinaPeptides] | greatest affinity for calcium | pronounced calcium-binding capability | no significant weight change | 6.61% | 54.35% | the inhibition rate decreased significantly with the increasing duration of gastrointestinal digestion | a decrease in α-helix content and an increase in β-fold structures | robust activity and stability within the gastrointestinal tract | 58.81% | increased gradually | 52.11% | 3290 µg/mL | 3.97 mg/mL | reversible | – |
| CCCCCCCCCCC[C@@H](C[C@@H]1OC(=O)[C@H]1CCCCCC)OC(=O)[C@H](CC(C)C)NC=O [orlistat] | – | – | – | – | – | – | – | – | – | – | – | – | – | – | no cytotoxicity |
